In the METLIN SMRT retention time set (Domingo-Almenara et al. 2019):

Assay: gradient 5% acetonitrile 3 min, to 50% in 2 min, to 85% in 15 min, held 3 min, 100 µL/min
Conditions: column: Zorbax Extend-C18 2.1 x 50 mm; eluents: water / acetonitrile, 0.1% formic acid
Outline: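 Retention times come from adduct peaks that were picked computationally and then checked by hand. The standards, pure and pooled in mixtures of ~100 molecules, were run on a Zorbax Extend-C18 column (2.1 × 50 mm, 1.8 μm) at 100 μL/min with water and acetonitrile, each with 0.1% formic acid. Detection was by quadrupole time-of-flight mass spectrometry in positive and negative ionization mode, with a dead volume of 40 μL and a dwell volume of 900 μL.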

Cc1nc2ccn(Cc3ccco3)c(=O)c2cc1C(=O)NCc1ccc2c(c1)OCO2
RP-LC retention time: 722 s

CCNc1nc(C)cc(N2CCN(S(=O)(=O)c3ccc(Cl)cc3)CC2)n1
RP-LC retention time: 735 s

Cc1cc(N2CCOCC2)nc(N2CCN(S(=O)(=O)c3cc(C(C)C)ccc3C)CC2)n1
RP-LC retention time: 803 s

CCCN1C(=O)C(CC(=O)N2CCOCC2)Sc2ncccc21 (configuration not stated)
RP-LC retention time: 641 s

Cc1cccc(OCC(=O)NC2(c3nc(C)no3)CCCCC2)c1
RP-LC retention time: 951 s

Cc1cc(N2CCN(C(=O)Cc3ccccc3Br)CC2)nc2nncn12
RP-LC retention time: 622 s

CCN1C(=O)c2cccnc2Sc2cc(NC(=O)c3cccc(F)c3)ccc21
RP-LC retention time: 844 s

O=C(NCCOC(=O)c1ccco1)C(=O)Nc1nc(-c2ccccc2)cs1
RP-LC retention time: 887 s

O=C1NC2(CCN(C(=O)Nc3ccc(F)cc3)CC2)N=C1c1ccc(Cl)cc1
RP-LC retention time: 890 s

O=C(Cn1nc2c(Oc3ccc(F)cc3)nccn2c1=O)NC1CCCCC1
RP-LC retention time: 804 s

Cn1c(N2CCCC(C(=O)Nc3ccc4c(c3)OCCO4)C2)cc(=O)n(C)c1=O (configuration not stated)
RP-LC retention time: 663 s

CCOC(=O)C(CC)n1cnc2c(cnn2-c2ccccc2)c1=O (configuration not stated)
RP-LC retention time: 857 s

CN1CCN(C(=O)CN2C(=O)CCCc3cc(S(=O)(=O)N4CCCCCC4)ccc32)CC1
RP-LC retention time: 632 s

Cc1ccn2cc(C(=O)NC(C)c3ccc(F)cc3)nc2c1 (configuration not stated)
RP-LC retention time: 670 s

O=C(NCC1CCN(c2ncccn2)CC1)Nc1c(F)cccc1F
RP-LC retention time: 610 s

CCn1c(=O)c(N2CCCC(C(=O)NCCc3ccco3)C2)nc2cccnc21 (configuration not stated)
RP-LC retention time: 828 s

Cc1cc(F)ccc1NC(=O)C1CCN(S(=O)(=O)c2cc(C(=O)N(C)C)cs2)CC1
RP-LC retention time: 758 s

N#Cc1ccccc1NC(=O)C(=O)NCc1ccccn1
RP-LC retention time: 572 s

CCN(CC)S(=O)(=O)N1CCC(C(=O)NCCN2CCOCC2)CC1
RP-LC retention time: 579 s

Cc1nn2c(NCc3ccccn3)c3c(nc2c1-c1ccccc1)CCCC3
RP-LC retention time: 602 s

O=C(c1ccc(Cn2cncn2)cc1)N1CCc2ccccc21
RP-LC retention time: 706 s

CCOC(=O)c1ccc(NC(=O)Cn2c(=O)c(CCC(=O)NC)nc3ccccc32)cc1
RP-LC retention time: 1260 s

CN(CCc1ccccn1)C(=O)c1cccc(N2CCNC(c3ccccc3)C2)n1 (configuration not stated)
RP-LC retention time: 555 s

O=C(Nc1ccc(F)cc1)C1CCCN(S(=O)(=O)c2cc(-c3noc(C4CCC4)n3)cs2)C1 (configuration not stated)
RP-LC retention time: 1160 s

CCc1ccccc1N1C(=O)CN(S(C)(=O)=O)CC1(C)C(=O)NCc1ccc(C)cc1 (configuration not stated)
RP-LC retention time: 860 s

Brc1cccc(-c2nc3ccccn3c2Nc2ccc3c(c2)OCCO3)c1
RP-LC retention time: 714 s

Fc1ccc(Nc2nc(-c3ccccc3)cs2)cc1
RP-LC retention time: 1120 s

CCCNC(=O)C1CCN(c2ccc(SCC(=O)Nc3ccc(C)cc3Cl)nn2)CC1
RP-LC retention time: 1160 s

CN1CCCn2nc(C3CCN(C(=O)Nc4ccc(F)cc4)CC3)cc2C1=O
RP-LC retention time: 669 s

CC(C)COc1ccc(S(=O)(=O)N2CCOC(c3ccccc3)C2)cc1 (configuration not stated)
RP-LC retention time: 560 s

CC(NC(=O)C1=CCN(Cc2ccc(F)cc2)CC1)c1ccccc1 (configuration not stated)
RP-LC retention time: 640 s

CC(=O)N1CC(c2nnc(C(C)C)o2)C2(CCOCC2)C1 (configuration not stated)
RP-LC retention time: 571 s

N#Cc1cccc(-c2cn3c(n2)N(C(=O)c2cccc(F)c2)CCC3)c1
RP-LC retention time: 749 s

O=C(c1c[nH]c2ncccc12)N1CCCCCC1
RP-LC retention time: 646 s

CS(=O)(=O)N[C@H]1C[C@@H]2C[C@H]1N(C(=O)Cc1c(F)cccc1Cl)C2
RP-LC retention time: 717 s

Cc1cccc(NC(=O)C2CCCN(c3ncnc4c3nc3n4CCCCC3)C2)n1 (configuration not stated)
RP-LC retention time: 730 s

O=C(c1ccc(Br)cc1)N1CCN(c2nnc3ccccn23)CC1
RP-LC retention time: 653 s
